The source of these data is patent US9248131B2, “Aquaporin modulators and methods of using them for the treatment of edema and fluid imbalance” (THE ARIZONA BOARD OF REGENTS ON BEHALF OF THE UNIVERSITY OF …, priority 2006, dated 2016).

SMILES strings stand for the structures.

For test [1], the target named is T1, Na—K—Cl cotransporter (NKCC1) (Mus musculus, UniProt P55012).
T1 sequence (P55012 1-1205): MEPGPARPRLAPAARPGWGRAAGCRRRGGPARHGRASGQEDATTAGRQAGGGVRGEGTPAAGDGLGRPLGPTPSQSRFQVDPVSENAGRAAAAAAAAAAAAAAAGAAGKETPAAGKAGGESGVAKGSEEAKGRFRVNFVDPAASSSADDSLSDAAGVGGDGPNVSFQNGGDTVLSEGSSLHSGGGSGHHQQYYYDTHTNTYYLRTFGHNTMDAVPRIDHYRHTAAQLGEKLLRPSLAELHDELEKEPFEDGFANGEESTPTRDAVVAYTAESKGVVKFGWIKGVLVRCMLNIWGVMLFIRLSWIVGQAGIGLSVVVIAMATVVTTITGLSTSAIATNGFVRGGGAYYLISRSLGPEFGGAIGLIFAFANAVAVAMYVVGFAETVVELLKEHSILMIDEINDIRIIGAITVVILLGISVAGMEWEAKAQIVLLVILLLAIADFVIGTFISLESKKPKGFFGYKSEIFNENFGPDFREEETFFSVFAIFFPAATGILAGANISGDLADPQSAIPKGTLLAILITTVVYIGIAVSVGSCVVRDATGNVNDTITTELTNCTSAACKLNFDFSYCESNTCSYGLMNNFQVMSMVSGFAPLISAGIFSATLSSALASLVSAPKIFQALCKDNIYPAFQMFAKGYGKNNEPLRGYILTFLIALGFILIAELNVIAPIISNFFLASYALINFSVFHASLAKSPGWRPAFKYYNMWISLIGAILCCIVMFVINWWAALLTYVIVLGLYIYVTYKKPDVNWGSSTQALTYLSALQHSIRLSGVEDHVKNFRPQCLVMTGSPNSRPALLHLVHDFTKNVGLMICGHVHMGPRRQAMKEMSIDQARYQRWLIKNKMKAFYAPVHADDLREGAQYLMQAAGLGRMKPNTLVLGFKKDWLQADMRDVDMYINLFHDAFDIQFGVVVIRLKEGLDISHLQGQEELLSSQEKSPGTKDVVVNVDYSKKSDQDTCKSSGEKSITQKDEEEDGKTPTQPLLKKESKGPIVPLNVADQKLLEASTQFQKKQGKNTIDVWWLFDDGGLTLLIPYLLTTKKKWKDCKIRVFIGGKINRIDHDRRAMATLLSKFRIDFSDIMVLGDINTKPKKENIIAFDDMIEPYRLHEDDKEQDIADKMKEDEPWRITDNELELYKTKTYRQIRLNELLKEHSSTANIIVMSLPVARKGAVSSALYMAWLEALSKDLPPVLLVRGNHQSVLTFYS
The settings on record: read-out: IC50 (half-maximal blocking concentration) against Na—K—Cl cotransporter; mouse kidney collecting duct cell line; cited from earlier work.

The test system of test [2] is cerebral ischemia (MCAO model). Put plainly: Middle cerebral artery occlusion (MCAO) model, 1 h ischemia and 24 h reperfusion. The test is classed as in vivo, mice. As to conditions: 60 mg/kg intravenous single bolus 10 min before reperfusion, 1 h ischemia. The source says: Anatomical measures of infarct size, brain volume, neurological assessments, and mortality rate can be used to assess the consequences of middle cerebral artery occlusion (MCAO) model in mice. The rodent MCAO model, an accepted model of cerebral ischemia and reperfusion (Clark et al., 1997), uses a silicone-coated filament to promote cerebral artery occlusion (Migliati et al., 2001). An innovative method to measure effective occlusion in real time is by laser Doppler monitoring of blood flow rate
Typical procedure for MCAO model in mice: Wild-type C57BL/6J male mice at 9-11 weeks old are anesthetized, and cerebral blood flow is recorded as baseline using laser Doppler. The monofilament is placed in the internal common carotid and advanced to the ostia of the middle cerebral artery. […] After 24 h, animals are evaluated for neurological, behavioral, and general deficits, and then sacrificed for anatomical analysis of the infarcted and contralateral control hemispheres. […]
FIG. 6 illustrates cerebral edema and infarct size in mice subjected to one hour of ischemia and 24 hours of reperfusion, with and without bumetanide (60 mg/kg) administered intravenously in a single bolus at 10 min before reperfusion. Stained with 2% TTC, the infarcted area is white; areas are analyzed using morphometric software by researchers blinded to the treatment group.

Test [3] deals with ischemia-induced cerebral edema (MCAO). The settings on record: cited from earlier work.
In another test the target is T2, AQP4-expressing oocytes (Homo sapiens, UniProt P55087).
T2 construct: expressed in transfected cells; host or cells: Xenopus oocytes
T2 sequence (P55087 whole entry, species assumed): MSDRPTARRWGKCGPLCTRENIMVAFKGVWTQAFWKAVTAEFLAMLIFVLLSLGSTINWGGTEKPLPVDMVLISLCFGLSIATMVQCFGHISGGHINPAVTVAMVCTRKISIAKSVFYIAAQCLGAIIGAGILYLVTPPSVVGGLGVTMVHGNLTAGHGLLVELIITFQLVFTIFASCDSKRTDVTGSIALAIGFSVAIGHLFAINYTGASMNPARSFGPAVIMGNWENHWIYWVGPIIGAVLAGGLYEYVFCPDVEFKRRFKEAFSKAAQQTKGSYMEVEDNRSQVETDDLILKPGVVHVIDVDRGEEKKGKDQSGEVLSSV
Put plainly: Simple screen: time to oocyte bursting in hypotonic saline. The test is classed as cell-based. As to conditions: 100 μM; AQP4-expressing oocytes preincubated 10-15 min, then 100 mOsm saline. The protocol:
The composition of the library for initial AQP channel screening included various channel, transporter and receptor blocking compounds based on intuition and from clues regarding clinical side effects that involved water transporting tissues. In a simple screen (FIG. 1), control and AQP4-expressing oocytes were preincubated in isotonic saline (100 mM NaCl; 5 mM MgCl2; 5 mM HEPES, pH 7.3; ˜200 mOsm) containing the test compound for 10-15 min before each experiment; then the time to oocyte bursting (physical explosion) after transfer to 100 mOsm saline was monitored visually. […] Block was evident in the increased time required for bursting in hypotonic saline.

`CCCCNc1cc(C(=O)O)cc(S(N)(=O)=O)c1Oc1ccccc1` [bumetanide]: in test [1], the IC50 was 330 nM. Also, the “cerebral edema and infarct size, statistical significance (p<0.06)” value in test [2] is given as “does not meet criteria, but indicates promise”. In addition, the ischemia-induced cerebral edema result in test [3] (30-mg/kg dose, rats, MCAO) is recorded as “effectively reduced ischemia-induced cerebral edema”. Further, the “edema formation, magnetic resonance diffusion-weighted imaging” value in test [3] (intravenous, first 3 hours of MCAO-induced cerebral ischemia) was “reduced edema formation”. In addition, the lowest effective dose in test [3] (rats, MCAO, reduction of edema) was 7.6 mg/kg. Moreover, the “time to oocyte bursting” value on AQP4-expressing oocytes is listed as “significantly delayed bursting time”.
